These results are taken from article PMC10571957, “αV-Integrin-Dependent Inhibition of Glioblastoma Cell Migration, Invasion and Vasculogenic Mimicry by the uPAcyclin Decapeptide” (Cancers, 2023).

Experiment [1] has as its system U251-MG cells (αV integrin). In words: FITC-uPAcyclin receptor binding/competition, U251-MG. On the set-up: species or system human. The settings on record: unlabeled uPAcyclin vs FITC-uPAcyclin, 4 °C. As to the method: The U87-MG, U251-MG, and U138-MG cell lines were harvested and acid-treated, as described. Then, 2 × 10^6 cells/sample were exposed for 30 min at 4 °C to uPAcyclin or S-uPAcyclin at the indicated concentrations, or with the following antibodies: VNR147 monoclonal anti-αV integrin (Chemicon Int. Inc., Temecula, CA, USA), polyclonal anti-αV (Millipore, Burlington, MA, USA), monoclonal anti-α2 (Chemicon Int. Inc., Temecula, CA, USA), polyclonal anti-actin (Sigma-Aldrich, St. Louis, MO, USA), monoclonal anti-GAPDH (Abcam, Cambridge, UK), and purified vitronectin (VN, Corning, Glendale, AZ, USA). The cells were subsequently incubated with 50 nM FITC-uPAcyclin for 2 h at 4 °C, as described. At the end of incubation, the cells were washed and the cell surface-associated fluorescence was determined using a fluorimeter (VICTOR^TM X3-PerkinElmer, Waltham, MA, USA). All binding assays were performed three times, with duplicate samples, and analyzed as described in Section 2.11.
Figure 2 αV expression of U87-MG, U251-MG, and U138-MG GBM cells and specific binding of FITC-uPAcyclin. […] At the end of the incubation, the unbound material was washed and cell-associated FITC-uPAcyclin was quantitated by a fluorimeter. The net value of cell-surface-associated fluorescence, corresponding to the specific binding, is shown. […]

Another experiment has as its system breast cancer cell lines. The settings on record: ref Belli et al. [25]; cited from earlier work.

For the substance “Ac-K^1P[ESPPEELK^10]-NH2 (sidechain bridge or staple) [uPAcyclin]”, the Kdapp result in experiment [1] is “low nanomolar range”. Moreover, the “migration and invasion inhibition” value in the experiment with breast cancer cell lines was “potent inhibitor of migration and invasion of breast cancer cell lines”.
